{"source": "patent US20260055088A1", "about": "“HETEROCYCLIC COMPOUND, METHOD FOR PREPARING SAME, AND PHARMACEUTICAL USE THEREOF” (Jiangsu Hengrui Pharmaceuticals Co., Ltd., priority 2022, published 2026)", "key": {"[1]": {"target": "Nav1.8 ion channel stably expressed on HEK293 cells (Homo sapiens (Human), UniProt Q9Y5Y9)", "test": "Inhibitory activity against Nav1.8, manual patch clamp", "type": "cell-based", "settings": "resting protocol (-80 mV to 10 mV), 1 μM TTX, read-out: IC50 for the inhibition of Nav1.8 channel activity", "from_the_text": "The objective of the experiment was to investigate the effects of the compounds on the Nav1.8 ion channel in ex vivo experiments. The Nav1.8 ion channel is stably expressed on HEK293 cells. After the Nav1.8 current stabilized, the effects of the compounds on the Nav1.8 ion channel were obtained by comparing the magnitudes of the Nav1.8 currents before and after the compounds were applied.\n• 1) A patch clamp amplifier: patch clamp PC-505B (WARNER instruments)/MultiClamp 700A (Axon instrument) • 2) A digital-to-analog converter: Digidata 1440A (Axon CNS)/Digidata 1550A (Axon instruments) • 3) A micromanipulator: MP-225 (SUTTER instrument) • 4) An inverted microscope: TL4 (Olympus) • 5) Glass micropipette puller: PC-10 (NARISHIGE) • 6) Microelectrode glass capillaries: B12024F (Wuhan VitalSense Scientific Instruments Co., Ltd.) • 7) Dimethyl sulfoxide (DMSO) D2650 (Sigma-Aldrich) • 8) TTX AF3014 (Affix Scientific)\nThe compounds for preparing the intracellular and extracellular fluids were purchased from Sigma (St. Louis, MO) except for the NaOH and KOH for the acid-base titrations. The extracellular fluid (mM) was: NaCl, 137; KCl, 4; CaCl2, 1.8; MgCl2, 1; HEPES, 10; glucose, 10; pH 7.4 (NaOH titration). The intracellular fluid (mM) was: aspartic acid, 140; MgCl2, 2; EGTA, 11; HEPES, 10; pH 7.2 (CsOH titration). All test and control compound solutions contained 1 μM TTX.\nThe test compounds were stored at a concentration of 9 mM in dimethyl sulfoxide (DMSO). On the testing day, the compounds were further dissolved in the extracellular fluid to prepare the required concentrations.\n1) After the compounds were prepared into solutions with specified concentrations, the compound solutions were sequentially added to channels in ascending order according to their concentrations, and each channel was labeled.\n2) A cell was transferred to the perfusion chamber. Positive pressure was applied inside the electrode, and the electrode tip was brought into contact with the cell. The three-way valve of the suction device was switched to the state where all three ways were open, and negative pressure was then applied to the electrode, allowing a high-resistance seal to form between the electrode and the cell. The application of negative pressure was continued to rupture the cell membrane, leading to the formation of a current pathway.\n3) After the cell membrane rupture current stabilized, perfusion was performed with different concentrations in sequence. If the current remained stable for at least one minute, perfusion was performed with the next concentration.\n4) The perfusion chamber was cleaned. The perfusion chamber was rinsed with the compound solutions in descending order according to their concentrations, with each concentration applied for 20 s. Finally, the perfusion chamber was rinsed with the extracellular fluid for 1 min.\nThe cell was clamped at −80 mV and then depolarized to 10 mV using a square wave lasting for 10 ms to obtain a Nav1.8 current. This procedure was repeated once every 5 seconds. The maximum current induced by the square wave was detected. After the current stabilized, perfusion was performed with the test compounds. After the reaction stabilized, the strength of the blocking was calculated.\nThe data were stored on a computer system and analyzed. Data acquisition and analysis were performed using pCLAMP 10 (Molecular Devices, Union City, CA), and the results were reviewed by a manager. “Current stabilized” means that the changes in current over time were within a limited range. The magnitude of the current after stabilization was used to calculate the effect of the compound at this […].\nThe inhibitory activity of the compounds of the present disclosure against Nav1.8 was determined through the above assay."}, "[2]": {"test": "Pharmacokinetic evaluation in SD rats (i.g.)", "type": "in vivo", "settings": "male, Sprague-Dawley (SD), rat, plasma, po, 50 mg/kg", "method": "SD rats were used as test animals. After intragastric (i.g.) administration of the example compounds to SD rats, the plasma concentrations of the compounds at different time points were determined by the LC/MS/MS method. The pharmacokinetic behaviors of the compounds of the present disclosure in SD rats were studied, and their pharmacokinetic profiles were evaluated.\nCompounds 16 and 32: Four male SD rats, provided by Vital River Laboratory Animal Technology Co., Ltd. The animals were fasted overnight and then intragastrically dosed.\nCompound 38: Two male SD rats, provided by Zhejiang Vital River Laboratory Animal Technology Co., Ltd. The animals were fasted overnight and then intragastrically dosed.\nCompounds 16 and 32: Certain amounts of the test compounds were weighed out, and 5% DMSO+5% tween 80+90% normal saline was added to prepare 0.2 mg/mL colorless clear solutions.\nCompound 38: A certain amount of the test compound was weighed out, and 25% PEG400+75% (10% TPGS+1% HPMC K100LV) was added to prepare a 5 mg/mL colorless clear solution.\nCompounds 16 and 32: The administration dose was 2 mg/kg, and the administration volume was 10.0 mL/kg.\nCompound 38: The administration dose was 50 mg/kg, and the administration volume was 10.0 mL/kg.\n(§1) 0.2-mL blood samples were collected from the orbit before administration and 0.25, 0.5, 1.0, 2.0, 4.0, 6.0, 8.0, 11.0, and 24.0 h after administration, placed into EDTA-K2 anticoagulation test tubes, and centrifuged at 10,000 rpm for 1 min (4° C.), and the plasma was separated within 1 h and stored with dry ice before analysis. The procedures from the blood collection to the centrifugation were performed under ice-bath conditions. Access to food was given 2 h after administration.\nCompounds 16 and 32: Determination of the plasma concentrations of the test compounds in SD rats after the compounds were administered at different concentrations: A 25-μL sample of the SD rat plasma collected at each time point after administration was taken, and 200 μL of acetonitrile containing an internal standard (verapamil, 100 ng/mL) was added. The mixture was vortexed and centrifuged at 3700 rpm for 10 min. 0.1 μL of the supernatant was taken for LC/MS/MS analysis.\nCompound 38: Determination of the plasma concentration of the test compound in SD rats after the compound was administered at different concentrations: A 25-μL sample of the SD rat plasma collected at each time point after administration was taken, and 200 μL of acetonitrile containing an internal standard (dexamethasone, 100 ng/mL) was added. The mixture was vortexed and centrifuged at 4000 rpm for 15 min. 1 μL of the supernatant was taken for LC/MS/MS analysis."}, "[3]": {"test": "Pharmacokinetic evaluation in CD-1 mice (i.g.)", "type": "in vivo", "settings": "male, mouse, plasma, po, 100 mg/kg", "method": "CD-1 mice were used as test animals. After intragastric (i.g.) administration of the compound of the present disclosure to CD-1 mice, the plasma concentrations of the compound at different time points were determined by the LC/MS/MS method. The pharmacokinetic behavior of the compound of the present disclosure in CD-1 mice was studied, and its pharmacokinetic profile was evaluated.\nNine male CD-1 mice (3 mice per time point), provided by Vital River Laboratory Animal Technology Co., Ltd. (license: SCXK (Zhejiang) 2019-0001). The mice were intragastrically dosed.\nA certain amount of the test compound was weighed out, and 25% PEG400+75% (10% TPGS+1% HPMC K100LV) was added to prepare a 10 mg/mL yellowish suspension.\nThe administration dose was 100 mg/kg, and the administration volume was 10 mL/kg.\nas §1, with “The intragastric administration groups: 0.1-mL” for “0.2-mL”, “at −80° C.” for “with dry ice”, “conditions.” for “conditions. Access to food was given 2 h after administration.”\nDetermination of the plasma concentration of the test compound in CD-1 mice after the compound was administered at different concentrations: A 20-μL sample of the CD-1 mouse plasma collected at each time point after administration was taken, and 200 μL of acetonitrile containing an internal standard (dexamethasone, 100 ng/mL) was added to each sample to precipitate protein. The mixture was vortexed for 5 min and centrifuged at 4000 rpm for 15 min. 40 μL of the supernatant was taken, and 120 μL of water was added. The mixture was vortexed for 5 min, and 0.5 μL of the mixture was taken for LC/MS/MS analysis."}, "[4]": {"test": "Pharmacokinetic evaluation in dogs (i.g.)", "type": "in vivo", "settings": "both sexes, dog, plasma, po, 2 mg/kg", "method": "Dogs were used as test animals. After intragastric (i.g.) administration of the example compound to dogs, the plasma concentrations of the compound at different time points were determined by the LC/MS/MS method. The pharmacokinetic behavior of the compound of the present disclosure in dogs was studied, and its pharmacokinetic profile was evaluated.\nThe compound of Example 43.\nFour dogs, with an equal number of males and females, provided by Weifang Shengnuo Laboratory Animal Breeding Co., Ltd (license: SCXK (Beijing) 2020-0009) and Beijing Institute of Xieerxin Biology Resource Co., Ltd (license: SCXK (Shandong) 20230001). The animals were fasted overnight and then intragastrically dosed.\nA certain amount of the example compound was weighed out, and 5% DMSO+20% PG+20% PEG400+55% normal saline was added to prepare a […] colorless clear solution.\nThe administration dose was 2 mg/kg, and the administration volume was 10.0 mL/kg.\nas §1, with “0.5-mL” for “0.2-mL”, “a forelimb vein” for “the orbit”, “11.0, 24.0, 48.0,” for “11.0,”, “72” for “24.0”\nDetermination of the plasma concentration of the test compound in dogs after the compound was administered at different concentrations: A 50-μL sample of the dog plasma collected at each time point after administration was taken, and 250 μL of acetonitrile containing an internal standard (labetalol, 1 μg/mL) was added. The mixture was vortexed and centrifuged at 3700 rpm for 10 min. 0.5 μL of the supernatant was taken for LC/MS/MS analysis."}, "[5]": {"settings": "read-out: Area under curve AUC0-t"}, "[6]": {"settings": "read-out: Half-life T½ (converted)"}, "[7]": {"settings": "read-out: Plasma concentration Cmax"}}, "data": [{"molecule": "COc1c([C@H]2[C@H](C(=O)Nc3ccnc(C4(N)CC4)c3)O[C@@](C)(C(F)(F)F)[C@H]2C)ccc(F)c1F", "note": "[Example 38, (2R,3S,4S,5R)—N-(2-(1-Aminocyclopropyl)pyridin-4-yl)-3-(3,4-difluoro-2-methoxyphenyl)-4,5-dimethyl-5-(trifluoromethyl)tetrahydrofuran-2-carboxamide]", "values": [{"measurement": "IC50", "setting": "[1]", "result": 2.2, "unit": "nM"}, {"measurement": "AUC(0-t)", "setting": "[2]; [5]", "result": 18400, "unit": "ng·h/mL"}, {"measurement": "CL/F", "setting": "[2]; read-out: Clearance rate CL/F", "result": 42, "unit": "mL/min/kg"}, {"measurement": "half-life", "setting": "[2]; [6]", "result": 5.84, "unit": "h"}, {"measurement": "Cmax", "setting": "[2]; [7]", "result": 1440, "unit": "ng/mL"}, {"measurement": "AUC(0-t)", "setting": "[3]; [5]", "result": 76700, "unit": "ng·h/mL"}, {"measurement": "CL/F", "setting": "[3]; read-out: Clearance rate CL/F", "result": 20.3, "unit": "mL/min/kg"}, {"measurement": "half-life", "setting": "[3]; [6]", "result": 5.8, "unit": "h"}, {"measurement": "Cmax", "setting": "[3]; [7]", "result": 6280, "unit": "ng/mL"}]}, {"molecule": "COc1c([C@H]2[C@H](C(=O)Nc3cc[n+]([O-])c(/C(N)=N/O)c3)O[C@@](C)(C(F)(F)F)[C@H]2C)ccc(F)c1F", "note": "[Example 43, 4-((2R,3S,4S,5R)-3-(3,4-Difluoro-2-methoxyphenyl)-4,5-dimethyl-5-(trifluoromethyl)tetrahydrofuran-2-carboxamido)-2-((Z)—N′-hydroxycarbamimidoyl)pyridine 1-oxide]", "values": [{"measurement": "IC50", "setting": "[1]", "result": 0.3, "unit": "nM"}, {"measurement": "AUC(0-t)", "setting": "[4]; [5]", "result": 250000, "unit": "ng·h/mL"}, {"measurement": "CL/F", "setting": "[4]; read-out: Clearance rate CL/F", "result": 0.128, "unit": "mL/min/kg"}, {"measurement": "half-life", "setting": "[4]; [6]", "result": 34.5, "unit": "h"}, {"measurement": "Cmax", "setting": "[4]; [7]", "result": 5680, "unit": "ng/mL"}]}, {"molecule": "CO/N=C(\\N)c1cc(NC(=O)[C@@H]2O[C@@](C)(C(F)(F)F)[C@@H](C)[C@H]2c2ccc(F)c(F)c2OC)cc[n+]1[O-]", "note": "[Example 44, 4-((2R,3S,4S,5R)-3-(3,4-Difluoro-2-methoxyphenyl)-4,5-dimethyl-5-(trifluoromethyl)tetrahydrofuran-2-carboxamido)-2-((Z)—N′-methoxycarbamimidoyl)pyridine 1-oxide]", "values": [{"measurement": "IC50", "setting": "[1]", "result": 0.53, "unit": "nM"}]}]}
